Source: article PMC7318034, “Safety, Pharmacokinetics, and Drug-Drug Interaction Potential of Intravenous Durlobactam, a β-Lactamase Inhibitor, in Healthy Subjects” (Antimicrobial Agents and Chemotherapy, 2020)
Like-named read-outs stand apart in the source and are kept apart here.

Experiment: Part B multiple-ascending-dose plasma PK in healthy subjects
Type: in vivo, human
Conditions: for Cmax / Tmax / AUC / clearance / half-life / Vd: human, plasma, iv; for AUC: read-out: AUC0–tau; for Vd: read-out: Vss
Description: This was a 4-part, double-blind, placebo-controlled study (15 cohorts) of DUR administered as a 3-h i.v. infusion (except for cohort 4, in which a 2-h i.v. infusion was evaluated) (see Table S5 in the supplemental material).
The blank control matrix was made up of human plasma (BioreclamationIVT) diluted 1:1 with SigmaFast (reconstituted protease inhibitor cocktail tablet [product S8820; Sigma-Aldrich, St. Louis, MO] in 10 ml of water) for preparation of calibration standards and QC samples. […] A 100-μl aliquot of the supernatant was transferred to 96-well plates. Samples were diluted further with 400 μl of water, and 5 μl of sample was injected into the LC-MS/MS system for analysis. […] The LLOQ for all analytes was 5 ng/ml.
AUC was calculated using the log-linear trapezoidal rule.
Pharmacokinetic parameters were summarized at each assessment time point using the mean ± standard deviation (SD), the percent coefficient of variation (CV), median, minimum, and maximum. Single-ascending-dose study data were assessed for dose proportionality using Cmax and AUC, and accumulation ratios was determined using repeat-dose cohorts. […] Noncompartmental analysis of PK parameters was performed using Phoenix WinNonlin (v6.4) software to determine PK parameters.

[1] = 0.25 g, part B cohort 9, 0.25 g q6h 3-h i.v. infusion, day 1
[2] = 0.25 g, part B cohort 9, 0.25 g q6h 3-h i.v. infusion, day 8
[3] = 0.5 g, part B cohort 10 (4 subjects), 0.5 g q6h 3-h i.v. infusion, day 1
[4] = 0.5 g, part B cohort 10 (4 subjects), 0.5 g q6h 3-h i.v. infusion, day 8
[5] = 1 g, part B cohort 11 (5 subjects), 1.0 g q6h 3-h i.v. infusion, day 1
[6] = 1 g, part B cohort 11 (5 subjects), 1.0 g q6h 3-h i.v. infusion, day 8
[7] = 2 g, part B cohort 12, 2.0 g q6h 3-h i.v. infusion, day 1
[8] = 2 g, part B cohort 12, 2.0 g q6h 3-h i.v. infusion, day 8
[9] = part B cohort 9, 0.25 g q6h 3-h i.v. infusion, day 8
[10] = part B cohort 10 (4 subjects), 0.5 g q6h 3-h i.v. infusion, day 8
[11] = part B cohort 11 (5 subjects), 1.0 g q6h 3-h i.v. infusion, day 8
[12] = part B cohort 12, 2.0 g q6h 3-h i.v. infusion, day 8

- Cmax [1]: 6900 ± 1400 ng/mL
- Tmax (0.25 g, part B cohort 9, 0.25 g q6h 3-h i.v. infusion, day 1, median): 3 h
- AUC [1]: 23100 ± 4900 ng·h/mL
- Cmax [2]: 7500 ± 1300 ng/mL
- Tmax (0.25 g, part B cohort 9, 0.25 g q6h 3-h i.v. infusion, day 8, median): 2.5 h
- AUC [2]: 26200 ± 5200 ng·h/mL
- Cmax [3]: 14900 ± 2200 ng/mL
- Tmax (0.5 g, part B cohort 10 (4 subjects), 0.5 g q6h 3-h i.v. infusion, day 1, median): 3 h
- AUC [3]: 50300 ± 9000 ng·h/mL
- Cmax [4]: 14800 ± 1100 ng/mL
- Tmax (0.5 g, part B cohort 10 (4 subjects), 0.5 g q6h 3-h i.v. infusion, day 8, median): 3 h
- AUC [4]: 53400 ± 4800 ng·h/mL
- Cmax [5]: 26900 ± 13100 ng/mL
- Tmax (1 g, part B cohort 11 (5 subjects), 1.0 g q6h 3-h i.v. infusion, day 1, median): 2.5 h
- AUC [5]: 79800 ± 35900 ng·h/mL
- Cmax [6]: 33400 ± 6000 ng/mL
- Tmax (1 g, part B cohort 11 (5 subjects), 1.0 g q6h 3-h i.v. infusion, day 8, median): 3 h
- AUC [6]: 109000 ± 13900 ng·h/mL
- Cmax [7]: 51900 ± 8000 ng/mL
- Tmax (2 g, part B cohort 12, 2.0 g q6h 3-h i.v. infusion, day 1, median): 3 h
- AUC [7]: 179000 ± 29900 ng·h/mL
- Cmax [8]: 53300 ± 7800 ng/mL
- Tmax (2 g, part B cohort 12, 2.0 g q6h 3-h i.v. infusion, day 8, median): 3 h
- AUC [8]: 193000 ± 31200 ng·h/mL
- clearance [9]: 163 mL/min
- half-life [9]: 1.9 ± 0.4 h
- Vd [9]: 18.5 ± 2.9 L
- clearance [10]: 157 mL/min
- half-life [10]: 2.6 ± 0.1 h
- Vd [10]: 18.1 ± 1.8 L
- clearance [11]: 155 mL/min
- half-life [11]: 3.5 ± 0.9 h
- Vd [11]: 17.2 ± 2 L
- clearance [12]: 177 mL/min
- half-life [12]: 10.1 ± 2.9 h
- Vd [12]: 21.8 ± 2 L
- Accum. index [9]: 1.1 ± 0.07
- Accum. index [10]: 1.3 ± 0.01
- Accum. index [11]: 1.5 ± 0.18
- Accum. index [12]: 3.0 ± 0.69
Compound: CC1=C[C@@H]2CN(C(=O)N2OS(=O)(=O)O)[C@@H]1C(N)=O [DUR, Durlobactam]
